Reference: patent US20240226125A1, “USE OF SOTAGLIFLOZIN FOR THE TREATMENT OF PATIENTS WITH TYPE 1 DIABETES MELLITUS” (priority 2019, published 2024)

Test system: adult patients with Type 1 Diabetes Mellitus who have inadequate glycemic control with insulin therapy
Experiment: inTandem 1 and inTandem 2 pooled clinical studies, safety events / main risks
Format: in vivo, human
Conditions: for Discontinuation of drug due to diarrhea / Patients with Any TEAE, (%) / Patients with DKA (positively adjudicated), (%) / Patients with Diarrhea, (%) / Patients with Genital mycotic infection, (%) / Patients with Severe hypoglycemia (positively adjudicated), (%): through 52 Weeks
[1] = 400 mg, Baseline BMI <27 kg/m^2, Week 52
[2] = 400 mg, Baseline BMI ≥27 kg/m^2, Week 52

Structure (SMILES): CCOc1ccc(Cc2cc([C@@H]3O[C@H](SC)[C@@H](O)[C@H](O)[C@H]3O)ccc2Cl)cc1 [sotagliflozin, (2S,3R,4R,5S,6R)-2-(4-chloro-3-(4-ethoxybenzyl)phenyl)-6-(methylthio)tetrahydro-2H-pyran-3,4,5-triol]
- Diarrhea, EAIR per 1,000 Subject-years (95% CL) [1]: 102.78 (56.56, 148.99) per 1,000 Subject-years
- Diarrhea, Events [n (%) n]: events n [1]: 28
- Diarrhea, Events [n (%) n]: patients (%) [1]: 9.0%
- Diarrhea, Events [n (%) n]: patients n [1]: 19
- Diarrhea, Events per Subject per Year [1]: 0.151 Events per Subject per Year
- Diarrhea, Relative Risk of EAIR (95% CL) Versus Placebo [1]: 2.98 (1.28, 7.60)
- Documented hypoglycemia <55 mg/dL, Events per Subject per Year [1]: 15.74 Events per Subject per Year
- Genital Mycotic Infections (female), EAIR per 1,000 Subject-years (95% CL) [1]: 196.79 (108.30, 285.28) per 1,000 Subject-years
- Genital Mycotic Infections (female), Events [n (%) n]: events n [1]: 31
- Genital Mycotic Infections (female), Events [n (%) n]: patients (%) [1]: 16.8%
- Genital Mycotic Infections (female), Events per Subject per Year [1]: 0.321 Events per Subject per Year
- Genital Mycotic Infections (female), Relative Risk of EAIR (95% CL) Versus Placebo [1]: 6.46 (2.09, 27.41)
- Genital Mycotic Infections (male), EAIR per 1,000 Subject-years (95% CL) [1]: 101.91 (35.33, 168.49) per 1,000 Subject-years
- Genital Mycotic Infections (male), Events [n (%) n]: events n [1]: 10
- Genital Mycotic Infections (male), Events [n (%) n]: patients (%) [1]: 9.1%
- Genital Mycotic Infections (male), Events per Subject per Year [1]: 0.113 Events per Subject per Year
- Genital Mycotic Infections (male), Relative Risk of EAIR (95% CL) Versus Placebo [1]: 5.31 (1.26, 36.06)
- Positively Adjudicated Diabetic Ketoacidosis, EAIR per 1,000 Subject-years (95% CL) [1]: 48.68 (16.88, 80.49) per 1,000 Subject-years
- Positively Adjudicated Diabetic Ketoacidosis, Events [n (%) n]: events n [1]: 9
- Positively Adjudicated Diabetic Ketoacidosis, Events [n (%) n]: patients (%) [1]: 4.2%
- Positively Adjudicated Diabetic Ketoacidosis, Events per Subject per Year [1]: 0.049 Events per Subject per Year
- Positively Adjudicated Severe Hypoglycemia, EAIR per 1,000 Subject-years (95% CL) [1]: 59.50 (24.34, 94.67) per 1,000 Subject-years
- Positively Adjudicated Severe Hypoglycemia, Events [n (%) n]: events n [1]: 16
- Positively Adjudicated Severe Hypoglycemia, Events [n (%) n]: patients (%) [1]: 5.2%
- Positively Adjudicated Severe Hypoglycemia, Events per Subject per Year [1]: 0.087 Events per Subject per Year
- Positively Adjudicated Severe Hypoglycemia, Relative Risk of EAIR (95% CL) Versus Placebo [1]: 0.71 (0.32, 1.51)
- Diarrhea, EAIR per 1,000 Subject-years (95% CL) [2]: 92.38 (57.53, 127.23) per 1,000 Subject-years
- Diarrhea, Events [n (%) n]: events n [2]: 37
- Diarrhea, Events [n (%) n]: patients (%) [2]: 8.6%
- Diarrhea, Events [n (%) n]: patients n [2]: 27
- Diarrhea, Events per Subject per Year [2]: 0.127 Events per Subject per Year
- Diarrhea, Relative Risk of EAIR (95% CL) Versus Placebo [2]: 1.25 (0.70, 2.27)
- Documented hypoglycemia <55 mg/dL, Events per Subject per Year [2]: 14.45 Events per Subject per Year
- Genital Mycotic Infections (female), EAIR per 1,000 Subject-years (95% CL) [2]: 192.26 (121.05, 263.48) per 1,000 Subject-years
- Genital Mycotic Infections (female), Events [n (%) n]: events n [2]: 48
- Genital Mycotic Infections (female), Events [n (%) n]: patients (%) [2]: 17.6%
- Genital Mycotic Infections (female), Events per Subject per Year [2]: 0.330 Events per Subject per Year
- Genital Mycotic Infections (female), Relative Risk of EAIR (95% CL) Versus Placebo [2]: 2.70 (1.30, 6.04)
- Genital Mycotic Infections (male), EAIR per 1,000 Subject-years (95% CL) [2]: 47.74 (12.37, 83.10) per 1,000 Subject-years
- Genital Mycotic Infections (male), Events [n (%) n]: events n [2]: 10
- Genital Mycotic Infections (male), Events [n (%) n]: patients (%) [2]: 4.5%
- Genital Mycotic Infections (male), Events per Subject per Year [2]: 0.068 Events per Subject per Year
- Genital Mycotic Infections (male), Relative Risk of EAIR (95% CL) Versus Placebo [2]: 6.93 (1.07, 157.36)
- Positively Adjudicated Diabetic Ketoacidosis, EAIR per 1,000 Subject-years (95% CL) [2]: 37.64 (15.39, 59.88) per 1,000 Subject-years
- Positively Adjudicated Diabetic Ketoacidosis, Events [n (%) n]: events n [2]: 11
- Positively Adjudicated Diabetic Ketoacidosis, Events [n (%) n]: patients (%) [2]: 3.5%
- Positively Adjudicated Diabetic Ketoacidosis, Events per Subject per Year [2]: 0.038 Events per Subject per Year
- Positively Adjudicated Diabetic Ketoacidosis, Relative Risk of EAIR (95% CL) Versus Placebo [2]: 10.22 (1.74, 221.94)
- Positively Adjudicated Severe Hypoglycemia, EAIR per 1,000 Subject-years (95% CL) [2]: 41.06 (17.83, 64.29) per 1,000 Subject-years
- Positively Adjudicated Severe Hypoglycemia, Events [n (%) n]: events n [2]: 17
- Positively Adjudicated Severe Hypoglycemia, Events [n (%) n]: patients (%) [2]: 3.8%
- Positively Adjudicated Severe Hypoglycemia, Events per Subject per Year [2]: 0.058 Events per Subject per Year
- Positively Adjudicated Severe Hypoglycemia, Relative Risk of EAIR (95% CL) Versus Placebo [2]: 0.51 (0.24, 1.02)
- Discontinuation of drug due to diarrhea (SOTA 200 mg): 0.4%
- Patients with Any TEAE, (%) (SOTA 200 mg): (75.0) %
- Patients with DKA (positively adjudicated), (%) (SOTA 200 mg): (2.9) %
- Patients with Diarrhea, (%) (SOTA 200 mg): (6.5) %
- Patients with Genital mycotic infection, (%) (SOTA 200 mg): (9.2) %
- Patients with Severe hypoglycemia (positively adjudicated), (%) (SOTA 200 mg): (5.7) %
- Discontinuation of drug due to diarrhea (SOTA 400 mg): 0.8%
- Patients with Any TEAE, (%) (SOTA 400 mg): (74.3) %
- Patients with DKA (positively adjudicated), (%) (SOTA 400 mg): (3.8) %
- Patients with Diarrhea, (%) (SOTA 400 mg): (8.8) %
- Patients with Genital mycotic infection, (%) (SOTA 400 mg): (12.0) %
- Patients with Severe hypoglycemia (positively adjudicated), (%) (SOTA 400 mg): (4.4) %
- risk of diarrhea compared to placebo (baseline BMI ≥27 kg/m^2, any doses): No increased risk
- risk of DKA versus placebo (both BMI subgroups): increased
- risk of severe hypoglycemia (both doses, baseline BMI ≥27 kg/m^2 (only 400 mg in BMI <27 kg/m^2)): numerically lower risk
- event rates of documented hypoglycemia ≤55 mg/dL (both doses, both BMI subgroups): numerically lower
